38 compounds from patent US6204293A, “Inhibitors of protein isoprenyl transferases” (University of Pittsburgh, priority 1998, dated 2001) can be followed below.

The target in this assay is T1, Rat brain protein farnesyltransferase (Rattus norvegicus, UniProt Q02293+Q04631).
T1 construct: Rat brain protein farnesyltransferase activity is measured; from tissue; host or cells: rat brain
Nature of the assay: % inhibition of farnesylation, scintillation proximity assay with biotin-K Ras B fragment. The settings on record: for inhibition at 1 µM: read-out: % inhibition at 1 × 10^-6 M; for inhibition at 0.01 µM: read-out: % inhibition at 1 × 10^-8 M; for inhibition at 0.1 µM: read-out: % inhibition at 1 × 10^-7 M. Type of assay: biochemical. In short, it runs like this: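 Scintillation proximity read-out of farnesylation, using a biotinylated K Ras B fragment (0.1 mM final) in place of biotin-lamin. Enzyme purified from rat brain; results given as % inhibition.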
A general note: SPA uses beads or plates that emit light when radiolabelled molecules are held near them.

Structures can show the parent of a compound that is named as a salt. Where two headings read alike, the source gives them in different places.

Usually inhibition stands for the share of the control response that was lost under treatment. As a reminder, the % inhibition is the relative decrease from the control value, in per cent.

T1 sequence (Q02293 whole entry, one chain of several): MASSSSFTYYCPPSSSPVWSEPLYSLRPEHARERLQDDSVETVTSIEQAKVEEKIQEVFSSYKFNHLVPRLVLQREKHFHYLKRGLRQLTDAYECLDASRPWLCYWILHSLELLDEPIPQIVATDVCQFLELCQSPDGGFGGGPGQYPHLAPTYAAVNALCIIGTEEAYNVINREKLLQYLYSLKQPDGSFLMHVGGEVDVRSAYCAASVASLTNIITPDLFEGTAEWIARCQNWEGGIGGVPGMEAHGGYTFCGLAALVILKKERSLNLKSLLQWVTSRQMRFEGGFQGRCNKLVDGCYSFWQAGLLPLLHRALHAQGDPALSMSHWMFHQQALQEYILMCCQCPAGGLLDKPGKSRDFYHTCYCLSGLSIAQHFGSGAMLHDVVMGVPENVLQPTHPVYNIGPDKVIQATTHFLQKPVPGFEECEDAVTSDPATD

On to `CSCC[C@H](NC(=O)c1ccc(OCCCOc2ccccc2)cc1-c1ccccc1C)C(=O)O` [Example 566, N-[4-(3-phenoxy)propoxy-2-(2-methylphenyl)benzoyl]methionine], for which, under “Table 2, 1 × 10^-6 M”, the inhibition at 1 µM worked out at 98%.

In the case of `CSCC[C@H](NC(=O)c1ccc(OCCCCC2CCCCC2)cc1-c1ccccc1C)C(=O)O` [Example 567, N-[4-(4-cyclohexyl)butoxy-2-(2-methylphenyl)benzoyl]methionine, lithium salt], the inhibition at 0.01 µM (Table 4, 1 × 10^-8 M) worked out at 69%.

With `CSCC[C@H](NC(=O)c1ccc(OCCCCOc2ccccc2)cc1-c1ccccc1C)C(=O)O` [Example 568, N-[4-(3-phenoxy)butoxy-2-(2-methylphenyl)benzoyl]methionine. lithium salt], the inhibition at 1 µM (Table 2, 1 × 10^-6 M) was 93%.

On to `CSCC[C@H](NC(=O)c1ccc(COCc2ccccc2)cc1-c1ccccc1C)C(=O)O` [Example 571, N-[4-(benzyloxymethyl)-2-(2-methylphenyl)benzoyl]methionine lithium salt], for which the inhibition at 0.1 µM was 88%.

For the compound `CSCC[C@H](NC(=O)c1ccc(CC(Cc2ccccc2)c2ccccc2)cc1-c1ccccc1C)C(=O)[O-].[Li+]` (some centres unmarked) [Example 572], the “% inhibition at 1 × 10^-6 M” value (Table 2, 1 × 10^-6 M) turned out to be 91%.

Consider `CSCC[C@H](NC(=O)c1ccc(COc2ccc3ccccc3c2)cc1-c1ccccc1C)C(=O)O` [Example 573, N-[4-(naphth-2-yloxymethyl)-2-(2-methylphenyl)benzoyl]methionine], for which, where the note is “Table 3, 1 × 10^-7 M”, the inhibition at 0.1 µM was 72%.

Turning to `CSCC[C@H](NC(=O)c1ccc(COc2cccc3ccccc23)cc1-c1ccccc1C)C(=O)O` [Example 574, N-[4-(naphth-1-yloxymethyl)-2-(2-methylphenyl)benzoyl]methionine], the inhibition at 0.1 µM (Table 3, 1 × 10^-7 M) was determined as 81%.

Turning to `CSCC[C@H](NC(=O)c1ccc(COCc2ccccc2)cc1-c1ccccc1)C(=O)O` [Example 575, N-[4-(benzyloxymethyl)-2-phenylbenzoyl]methionine], the inhibition at 1 µM (Table 2, 1 × 10^-6 M) is 70%.

On to `Cc1ccccc1-c1cc(COCc2ccccc2)ccc1C(=O)N[C@@H](CCS(C)(=O)=O)C(=O)O` [Example 576, N-2-[4-(benzyloxymethyl)-2-(2-methylphenyl)benzoyl]amino-4-methanesulfonylbutanoic acid lithium salt], for which the inhibition at 1 µM (Table 2, 1 × 10^-6 M) is 88%.

With `CSCC[C@H](NC(=O)c1ccc(COCc2ccccc2C)cc1-c1ccccc1C)C(=O)O` [Example 577, N-[4-(2-methylbenzyloxymethyl)-2-(2-methylphenyl)benzoyl]methionine lithium salt], the inhibition at 1 µM is 94%.

Turning to `CSCC[C@H](NC(=O)c1ccc(COCc2cccc(C)c2)cc1-c1ccccc1C)C(=O)O` [Example 578, N-[4-(3-methylbenzyloxymethyl)-2-(2-methylphenyl)benzoyl]methionine lithium salt], the inhibition at 0.1 µM was 90%.

With `CSCC[C@H](NC(=O)c1ccc(COCc2ccc(C)cc2)cc1-c1ccccc1C)C(=O)O` [Example 579, N-[4-(4-methylbenzyloxymethyl)-2-(2-methylphenyl)benzoyl]methionine lithium salt], the inhibition at 0.1 µM amounted to 92%.

With `CSCC[C@H](NC(=O)c1ccc(COCc2ccccc2)cc1-c1ccccc1C)C(=O)NS(=O)(=O)c1ccccc1` [Example 580, Benzenesulfonyl N-2-[4-(benzyloxymethyl)-2-(2-methylphenyl)benzoyl]amino-4-methylthiobutanamide], the inhibition at 0.1 µM (Table 3, 1 × 10^-7 M) came to 90%.

With `CSCC[C@H](NC(=O)c1ccc(COCc2ccccc2)cc1-c1ccccc1C)C(=O)NS(=O)(=O)c1ccc(Cl)cc1` [Example 581, 4-chlorobenzenesulfonyl N-2-[4-(benzyloxymethyl)-2-(2-methylphenyl)benzoyl]amino-4-methylthiobutanamide], the inhibition at 0.1 µM (Table 3, 1 × 10^-7 M) came out at 96%.

As for `CSCC[C@H](NC(=O)c1ccc(COCc2ccccc2)cc1-c1ccccc1C)C(=O)NS(=O)(=O)c1ccc(C)cc1` [Example 582, 4-methylbenzenesulfonyl N-2-[4-(benzyloxymethyl)-2-(2-methylphenyl)benzoyl]amino-4-methylthiobutanamide], the inhibition at 1 µM (Table 2, 1 × 10^-6 M) amounted to 99%.

For the compound `CSCC[C@H](NC(=O)c1ccc(COCc2ccc3ccccc3c2)cc1-c1ccccc1C)C(=O)O` [Example 583, N-[4-(naphth-2-ylmethoxymethyl)-2-(2-methylphenyl)benzoyl]methionine lithium salt], the inhibition at 1 µM came to 98%.

Consider `CSCC[C@H](NC(=O)c1ccc(COCc2cccc3ccccc23)cc1-c1ccccc1C)C(=O)O` [Example 584, N-[4-(naphth-1-ylmethoxymethyl)-2-(2-methylphenyl)benzoyl]methionine lithium salt], for which the inhibition at 0.1 µM was 96%.

As to `CSCC[C@H](NC(=O)c1ccc(COCC2CCCCC2)cc1-c1ccccc1C)C(=O)O` [Example 585, N-[4-(cyclohexylmethoxymethyl)-2-(2-methylphenyl)benzoyl]methionine lithium salt], the inhibition at 0.1 µM was 96%.

`CSCC[C@H](NC(=O)c1ccc(CSCc2ccccc2)cc1-c1ccccc1C)C(=O)NS(=O)(=O)c1ccc(C)cc1` [Example 586, 4-methylbenzenesulfonyl N-2-[4-(benzylthiomethyl)-2-(2-methylphenyl)benzoyl]amino-4-methylthiobutanamide]: the inhibition at 0.01 µM (Table 4, 1 × 10^-8 M) amounted to 90%.

For the compound `CSCC[C@H](NC(=O)c1ccc(COCCc2ccccc2)cc1-c1ccccc1C)C(=O)O` [Example 587, N-[4-(2-phenylethoxymethyl)-2-(2-methylphenyl)benzoyl]methionine lithium salt], the inhibition at 1 µM was determined as 97%.

Consider `CSCC[C@H](NC(=O)c1ccc(COCCc2ccccc2Cl)cc1-c1ccccc1C)C(=O)O` [Example 588, N-[4-(2-(2-chlorophenyl)ethoxymethyl)-2-(2-methylphenyl)benzoyl]methionine lithium salt], for which the inhibition at 0.01 µM came to 68%.

Take `COc1ccccc1CCOCc1ccc(C(=O)N[C@@H](CCSC)C(=O)O)c(-c2ccccc2C)c1` [Example 589, N-[4-(2-(2-methoxyphenyl)ethoxymethyl)-2-(2-methylphenyl)benzoyl]methioninelithium salt]: the inhibition at 0.1 µM (Table 3, 1 × 10^-7 M) amounted to 91%.

For `CSCC[C@H](NC(=O)c1ccc(COCCc2ccc(Cl)cc2)cc1-c1ccccc1C)C(=O)O` [Example 590, N-[4-(2-(4-chlorophenyl)ethoxymethyl)-2-(2-methylphenyl)benzoyl]methionine lithium salt], the inhibition at 0.1 µM is 95%.

Consider `CSCC[C@H](NC(=O)c1ccc(COCCc2ccc(Cl)cc2Cl)cc1-c1ccccc1C)C(=O)O` [Example 591, N-[4-(2-(2,4-dichlorophenyl)ethoxymethyl)-2-(2-methylphenyl)benzoyl]methionine lithium salt], for which the inhibition at 0.01 µM worked out at 82%.

`CSCC[C@H](NC(=O)c1ccc(COCCc2cccc3ccccc23)cc1-c1ccccc1C)C(=O)O` [Example 592, N-[4-(2-naphth-1-ylethoxymethyl)-2-(2-methylphenyl)benzoyl]methionine lithium salt]: the inhibition at 0.1 µM amounted to 93%.

As to `CSCC[C@H](NC(=O)c1ccc(COCCc2ccc3ccccc3c2)cc1-c1ccccc1C)C(=O)O` [Example 593, N-[4-(2-naphth-2-ylethoxymethyl)-2-(2-methylphenyl)benzoyl]methionine lithium salt], the inhibition at 0.1 µM worked out at 86%.

Regarding `CSCC[C@H](NC(=O)c1ccc(COCCC2CCCCC2)cc1-c1ccccc1C)C(=O)O` [Example 594, N-[4-(2-cyclohexylethoxymethyl)-2-(2-methylphenyl)benzoyl]methionine lithium salt], the inhibition at 0.1 µM was determined as 95%.

As to `CSCC[C@H](NC(=O)c1ccc(COCCCc2ccccc2)cc1-c1ccccc1C)C(=O)O` [Example 595, N-[4-(3-phenylpropoxymethyl)-2-(2-methylphenyl)benzoyl]methionine lithium salt], the inhibition at 1 µM is 97%.

Turning to `CSCC[C@@H](C(=O)O)N(C)C(=O)c1ccc(COCCCC2CCCCC2)cc1-c1ccccc1C` [Example 597, N-[4-(3-cyclohexylpropoxymethyl)-2-(2-methylphenyl)benzoyl]-N-methylmethionine lithium salt], the inhibition at 0.1 µM was determined as 75%.

Regarding `CSCC[C@H](NC(=O)c1ccc(COCCCC23CC4CC(CC(C4)C2)C3)cc1-c1ccccc1C)C(=O)O` [Example 599, N-[4-(3-adamant-1-ylpropoxymethyl)-2-(2-methylphenyl)benzoyl]methionine lithium salt], the inhibition at 0.01 µM was 86%.

Consider `CSCC[C@H](NC(=O)c1ccc(COCCCCC2CCCCC2)cc1-c1ccccc1C)C(=O)O` [Example 600], for which, under “Table 3, 1 × 10^-7 M”, the inhibition at 0.1 µM amounted to 93%.

For the compound `CSCC[C@H](NC(=O)c1ccc(COCCCCc2ccccc2)cc1-c1ccccc1C)C(=O)O` [Example 601], the inhibition at 0.1 µM (Table 3, 1 × 10^-7 M) stood at 92%.

In the case of `CSCC[C@H](NC(=O)c1ccc(CN[C@@H](CO)C2CCCCC2)cc1-c1ccccc1C)C(=O)O` [Example 604], for the setting “Table 3, 1 × 10^-7 M”, the “% inhibition at 1 × 10^-7 M” value worked out at 86%.

For `CSCC[C@H](NC(=O)c1ccc(CN(CCC2CCCCC2)Cc2ccccc2)cc1-c1ccccc1C)C(=O)[O-].[Li+]` [Example 605], under “Table 4, 1 × 10^-8 M”, the “% inhibition at 1 × 10^-8 M” value is listed as 68%.

For `CCSC[C@H](CC1CCCCC1)OCc1ccc(C(=O)N[C@@H](CCSC)C(=O)O)c(-c2ccccc2C)c1` [Example 606, Lithium Salt], the inhibition at 0.01 µM (Table 4, 1 × 10^-8 M) was 93%.

As to `CSCC[C@H](NC(=O)c1ccc(CNCCC2CCCCC2)cc1-c1ccccc1C)C(=O)O.O=C(O)C(F)(F)F` [Example 607], the “% inhibition at 1 × 10^-6 M” value (Table 2, 1 × 10^-6 M) was determined as 96%.

Turning to `CSCC[C@H](NC(=O)c1ccc(CN(C)CCC2CCCCC2)cc1-c1ccccc1C)C(=O)[O-].[Li+]` [Example 608], the “% inhibition at 1 × 10^-8 M” value (Table 4, 1 × 10^-8 M) was 91%.

As to `CSCC[C@H](NC(=O)c1ccc(CN(CCC2CCCCC2)C(C)=O)cc1-c1ccccc1C)C(=O)[O-].[Li+]` [Example 609], the “% inhibition at 1 × 10^-7 M” value (Table 3, 1 × 10^-7 M) was determined as 95%.
